Reference: PMC4421842 (Nature Communications, 2015)
Values after ≈ are worked out from the molar mass of the structure shown. Values joined by “and” are separate entries in the source; they are usually repeats but may differ in a detail not shown here. Equal entries are not always repeated. “Also recorded” adds a separate entry of the source. Where two headings read alike, the source gives them in different places.

Assays:
[1] = test system: WT S. aureus (ATCC 29213, WT); assay: microbe, parasite or virus in culture; type: cell-based; conditions: WT GyrA and WT ParC, three independent replicates
[2] = Pharmacokinetic assessment; type: in vivo, C57BL/6 mice; conditions: for Cmax: female, C57BL/6, mouse
Experimental: (§1) The animal studies (PK, in-vivo toxicity and in-vivo efficacy) were carried out in strict accordance with the recommendations in the Guide for the Care and Use of Laboratory Animals of the National Institutes of Health. […] In these studies, 10- to 12-week-old female C57BL/6 mice purchased from Charles River were used. DNM, DNM-2 and DNM-3 were formulated as slurries at 8.3 mg ml^−1 in 25% Cremophor RH40/water (v/v). Before beginning the pharmacokinetic assessment, mice were first tested for their ability to tolerate the DNM, DNM-2 and DNM-3 at 50 mg kg^−1 (p.o.). […] At specified time points, mice were killed and blood was collected, centrifuged and the serum was frozen at −80 °C until analysis. The proteins in a 50-μl aliquot of serum were precipitated by the addition of 50 μl of acetonitrile and the sample was centrifuged to remove the proteins. Serum concentrations of DNM, DNM-2 and DNM-3 were determined by HPLC. PK parameters were determined using GraphPad Prism Version 5.00 for Windows.

[3] = test system: FQR S. aureus (NRS3, FQR); assay: MIC, microdilution broth assay, FQR MRSA NRS3; type: cell-based; conditions: NRS3, S84L GyrA and S80F ParC, three independent replicates
P. aeruginosa = assay: MIC, microdilution broth, P. aeruginosa; type: cell-based
Text: (§2) MRSA and P. aeruginosa isolates were from Cubist Pharmaceuticals (Lexington, MA). VRE isolates were from a previously published collection. E. coli strains were obtained either from ATCC or Professor Cari Vanderpool (UIUC). A. baumannii isolates were obtained from Dr John Quale[51].
(§3) Mueller Hinton (MH) broth was used.

VRE clinical isolates = assay: MIC, VRE clinical isolates panel (summary by GyrA mutation); type: cell-based, Enterococcus; conditions: for MIC: Enterococcus, VRE
Text: as §2, §3

WT E. coli DNA gyrase = biological target: T1, WT E. coli DNA gyrase (Escherichia coli, UniProt P0AES4+P0AES6); type: biochemical; conditions: DNA cleavage assay
T1 construct: His tag (pTRCHisA vector; purified on Ni-NTA); made in house; host or cells: E. coli One Shot BL21 Star (DE3)

E. coli = assay: microbe, parasite or virus in culture; type: cell-based; conditions: Escherichia coli, ATCC25922, E. coli ATCC 25922; gyrA none, parC none
Text: as §2, §3

S83R E. coli DNA gyrase = biological target: T2, S83R E. coli DNA gyrase (Escherichia coli, UniProt P0AES4+P0AES6, S83R); type: biochemical; conditions: DNA cleavage assay
T2 construct: His tag (pTRCHisA vector; purified on Ni-NTA); made in house; host or cells: E. coli One Shot BL21 Star (DE3)

[4] = test system: normal (that is, non-cancerous) cell lines; design: method as in PMID 10993200; conditions: previously published data; cited from earlier work
[5] = test system: resistant strains of ATCC 29213; assay: microbe, parasite or virus in culture; type: cell-based, S. aureus; conditions: Staphylococcus aureus
S. aureus (ATCC 29213) = assay: Resistant mutant generation (resistance frequency); type: cell-based; conditions: development of DNM resistance in high-level CIP-resistant strains
physchem = conditions: pH 7.4
Experimental: Three independent replicates of each compound were performed.

E. faecium = assay: microbe, parasite or virus in culture; type: cell-based; conditions: Enterococcus faecium, E. faecium
[6] = Tolerability in mice (maximal tolerated dose); type: in vivo
Experimental: as §1

MRSA clinical isolates = assay: microbe, parasite or virus in culture; type: cell-based, S. aureus; conditions: for MIC: Staphylococcus aureus, MRSA
How it was run: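 Broth microdilution per CLSI guidelines in Mueller Hinton broth, run in triplicate against clinical MRSA isolates.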

A. baumannii = assay: MIC, microdilution broth, A. baumannii; type: cell-based
Text: as §2, §3

Ent. Spp. = assay: MIC, microdilution broth, Ent. Spp. VRE clinical isolate; type: cell-based; conditions: Enterococcus, C28036, gyrA Ser83Ile, parC Ser80Ile
Text: as §2, §3

E. faecalis = assay: microbe, parasite or virus in culture; type: cell-based; conditions: E. faecalis

Cc1cc(=O)n(C)c2c3c4c(cc12)c(C)cc(=O)n4CO3 [DNM, deoxynybomycin]
MIC against S. aureus 29213 ([1]; ATCC 29213): modest activity and 2 μg ml^−1 | MIC ([1]; Staphylococcus aureus, ATCC29213, ATCC 29213, read-out: MIC against S. aureus 29213): > 1 µg/mL | Cmax ([2]; C57/BL6 mice, 50 mg kg-1 oral gavage, serum, read-out: Cmax): < 60 ng/mL | Cmax ([2]; mice, 50 mg kg^−1 oral dose, serum, read-out: Cmax (peak serum concentration)): < 200 nM | oral bioavailability / serum exposure ([2]; mice, 50 mg kg^−1 oral dose): very low serum exposure; also recorded: not absorbed to any appreciable degree | Cmax (peak serum concentration) ([2]; mice, 50 mg kg^−1 oral dose, serum): < 60 ng/mL | MIC against S. aureus NRS3 [3]: 0.03 µg/mL (≈ 0.106 µM) | MIC ([3]; Staphylococcus aureus, read-out: MIC against S. aureus NRS3): 0.03 µg/mL (≈ 0.106 µM) | activity against wild-type (WT) or FQR P. aeruginosa (P. aeruginosa): no detectable activity | MIC (P. aeruginosa; PA1586 (CIP resistant clinical isolate)): > 4 µg/mL | MIC (P. aeruginosa; Pseudomonas aeruginosa, P. aeruginosa PAO1, read-out: MIC): > 4 µg/mL | MIC (P. aeruginosa; Pseudomonas aeruginosa, read-out: MIC): > 4 µg/mL | MIC (VRE clinical isolates; VRE harbouring the S83I mutation in GyrA): 0.125 to 1 µg/mL (≈ 0.443 to 3.54 µM) | MIC (VRE clinical isolates; VRE with the S83R mutation in GyrA): ≥ 1 µg/mL | Sensitivity of VRE clinical isolates (VRE clinical isolates; panel of VRE clinical isolates (n=22)): sensitive | inhibition of WT DNA gyrase (increase in L or OC DNA) (WT E. coli DNA gyrase): poor inhibitors of WT DNA gyrase | MIC (E. coli): > 4 µg/mL | inhibition of S83R DNA gyrase (S83R E. coli DNA gyrase): buildup of OC DNA similar to that seen with S83L DNA gyrase only at a slightly higher concentration or longer time points | toxicity to normal (non-cancerous) cell lines [4]: non-toxic | MIC ([5]; ATCC29213, high-level CIP-resistant strains, second step, S84L mutation in GyrA): 0.03 to 0.06 µg/mL (≈ 0.106 to 0.213 µM) | MIC ([5]; ATCC29213, low-level CIP-resistant strains, first step, WT gyrA, mutation in ParC (for example E84K or S80F)): > 1 µg/mL | MIC ([5]; ATCC29213, resistance cycle strain, WT gyrA, WT parC (Fig. 4a)): > 1 µg/mL | resistance frequencies (S. aureus (ATCC 29213)): 1 × 10^−10 to 7 × 10^−10 | solubility at 1 h (physchem): 9 µM (≈ 2.54 µg/mL) | MIC (E. faecium; C21190, gyrA Ser83 Arg, parC Ser80Ile): > 1 µg/mL | MIC (E. faecium; C27282, gyrA Ser83 Arg, parC Ser80Arg): > 1 µg/mL | MIC (E. faecium; S34, gyrA Ser83Ile, parC Ser80 Arg): 1 µg/mL (≈ 3.54 µM) | MIC (E. faecium; S226, gyrA Ser83Ile, parC Ser80Ile): 0.25 µg/mL (≈ 0.886 µM) | MIC (E. faecium; S235, gyrA Ser83Ile, parC Ser80Ile): 0.125 µg/mL (≈ 0.443 µM) | MIC (E. faecium; S344, gyrA Ser83Ile, parC Ser80Ile): 0.25 µg/mL (≈ 0.886 µM) | MIC (E. faecium; S557, gyrA Ser83Ile, parC Ser80Ile): 0.25 µg/mL (≈ 0.886 µM) | MIC (E. faecium; U63, gyrA Ser83 Arg, parC Ser80Ile): 1 µg/mL (≈ 3.54 µM) | MIC (E. faecium; U275, gyrA Ser83Cys Glu87Gly, parC Ser80Ile): 1 µg/mL (≈ 3.54 µM) | MIC (E. faecium; U464, gyrA Ser83 Arg, parC Ser80Ile): 1 µg/mL (≈ 3.54 µM) | MIC (E. faecium; U503, gyrA Ser83 Arg, parC Ser80Ile): > 1 µg/mL | MIC (E. faecium; U563, gyrA Ser83 Arg, parC Ser80Ile): > 1 µg/mL | tolerability ([6]; increasing doses, highest dose evaluated 50 mg kg^−1 by oral gavage): well tolerated up to the highest dose evaluated | maximal tolerated dose ([6]; oral gavage): > 50 mg/kg | MIC (MRSA clinical isolates; strain SAU.1118, read-out: MIC): 1 µg/mL (≈ 3.54 µM) | MIC (MRSA clinical isolates; strain SAU.2996, read-out: MIC): 0.25 µg/mL (≈ 0.886 µM) | MIC (MRSA clinical isolates; strain SAU.3017, read-out: MIC): 1 µg/mL (≈ 3.54 µM) | MIC (MRSA clinical isolates; strain SAU.3021, read-out: MIC): 0.031 µg/mL (≈ 0.11 µM) | MIC (MRSA clinical isolates; strain SAU.3025, read-out: MIC): 0.031 µg/mL (≈ 0.11 µM) | MIC (MRSA clinical isolates; strain SAU.419, read-out: MIC): 0.125 µg/mL (≈ 0.443 µM) | MIC (MRSA clinical isolates; strain SAU.42, read-out: MIC): 1 µg/mL (≈ 3.54 µM) | MIC (MRSA clinical isolates; strain SAU.446, read-out: MIC): 0.25 µg/mL (≈ 0.886 µM) | MIC (MRSA clinical isolates; strain SAU.447): 0.063 µg/mL (≈ 0.223 µM) | MIC (MRSA clinical isolates; strain SAU.492, gyrA Ser84Leu, parC Ser80Tyr): 0.063 µg/mL (≈ 0.223 µM) | MIC (MRSA clinical isolates; strain SAU.493, gyrA Ser84Leu, parC Ser80Phe): 0.063 µg/mL (≈ 0.223 µM) | MIC (MRSA clinical isolates; strain SAU.494, gyrA Ser84Leu, parC Ser80Phe): 0.063 µg/mL (≈ 0.223 µM) | MIC (MRSA clinical isolates; strain SAU.495, gyrA Ser84Leu, parC Ser80Phe): 0.063 µg/mL (≈ 0.223 µM) | MIC (MRSA clinical isolates; strain SAU.496, gyrA Ser84Leu, parC Ser80Phe): 0.063 µg/mL (≈ 0.223 µM) | MIC (MRSA clinical isolates; strain SAU.555, read-out: MIC): 0.125 µg/mL (≈ 0.443 µM) | MIC (MRSA clinical isolates; strain SAU.708, gyrA Ser84Leu, parC Ser80Phe Glu84Lys): 0.063 µg/mL (≈ 0.223 µM) | MIC (MRSA clinical isolates; strain SAU.709, gyrA Ser84Leu, parC Ser80Tyr Glu84Gly): 0.063 µg/mL (≈ 0.223 µM) | MIC (MRSA clinical isolates; strain SAU.846, read-out: MIC): 0.031 µg/mL (≈ 0.11 µM) | Sensitivity of MRSA clinical isolates (MRSA clinical isolates; panel of MRSA clinical isolates (n=21)): sensitive | activity against wild-type (WT) or FQR Acinetobacter baumannii (A. baumannii): no detectable activity | MIC (A. baumannii; A. baumannii KB304, gyrA S83L): > 4 µg/mL | MIC (A. baumannii; Acinetobacter baumannii): > 4 µg/mL | MIC (A. baumannii; Acinetobacter baumannii, ATCC19606, A. baumannii ATCC 19606, read-out: MIC): > 4 µg/mL | MIC (Ent. Spp.): 0.25 µg/mL (≈ 0.886 µM) | MIC (E. faecalis; ATCC 29212, gyrA WT, parC WT): > 1 µg/mL | MIC (E. faecalis; Enterococcus faecalis, ATCC19433, ATCC 19433, gyrA WT, parC WT): > 1 µg/mL | MIC (E. faecalis; Enterococcus faecalis, ATCC29212, ATCC 29212, gyrA WT, parC WT): > 1 µg/mL | MIC (E. faecalis; Enterococcus faecalis, S206, gyrA Ser83 Arg, parC Ser80Ile): 1 µg/mL (≈ 3.54 µM)
